# Experimental data from PubChem BioAssay (NCI).
# Where “and” joins values, the source holds several entries; their conditions need not be identical. Identical values can stand only once.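 Step 1: Grow cells in 96-well plates. Step 2: Expose to compound for 48 hours at 5 concentrations. Step 3: Interpolate endpoints linearly; if unreached, use highest concentration. Here, GI50 denotes the concentration required for 50% inhibition of growth. TGI: total growth inhibition.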
# Key:
# Test in all cases: inhibition of tumour cell growth, NCI panel, 48 h
# [1] = system: 786-0 renal
# [2] = system: A498 renal
# [3] = system: A549 NSCLC
# [4] = system: ACHN renal
# [5] = system: CAKI-1 renal
# [6] = system: COLO 205 colon
# [7] = system: DLD-1 colon
# [8] = system: DMS 114 small cell lung
# [9] = system: DMS 273 small cell lung
# [10] = system: EKVX NSCLC
# [11] = system: HCC-2998 colon
# [12] = system: HCT-116 colon
# [13] = system: HCT-15 colon
# [14] = system: HL-60(TB) leukemia
# [15] = system: HOP-18 NSCLC
# [16] = system: HOP-62 NSCLC
# [17] = system: HOP-92 NSCLC
# [18] = system: HS 578T breast
# [19] = system: HT29 colon
# [20] = system: IGROV1 ovarian
# [21] = system: K-562 leukemia
# [22] = system: KM12 colon
# [23] = system: KM20L2 colon
# [24] = system: LOX IMVI melanoma
# [25] = system: LXFL 529 NSCLC
# [26] = system: M14 melanoma
# [27] = system: M19-MEL melanoma
# [28] = system: MALME-3M melanoma
# [29] = system: MOLT-4 leukemia
# [30] = system: NCI-H226 lung
# [31] = system: NCI-H23 lung
# [32] = system: NCI-H460 lung
# [33] = system: NCI-H522 lung
# [34] = system: OVCAR-3 ovarian
# [35] = system: OVCAR-4 ovarian
# [36] = system: OVCAR-5 ovarian
# [37] = system: OVCAR-8 ovarian
# [38] = system: RPMI-8226 leukemia
# [39] = system: RXF 393 renal
# [40] = system: SF-268 CNS
# [41] = system: SF-295 CNS
# [42] = system: SF-539 CNS
# [43] = system: SK-MEL-2 melanoma
# [44] = system: SK-MEL-28 melanoma
# [45] = system: SK-MEL-5 melanoma
# [46] = system: SK-OV-3 ovarian
# [47] = system: SN12C renal
# [48] = system: SNB-19 CNS
# [49] = system: SNB-75 CNS
# [50] = system: SNB-78 CNS
# [51] = system: SR leukemia
# [52] = system: SW-620 colon
# [53] = system: TK-10 renal
# [54] = system: U251 CNS
# [55] = system: UACC-257 melanoma
# [56] = system: UO-31 renal
# [57] = system: XF 498 CNS
smiles,measurement,setting,value
CCN(CC)CCCNc1ccc2ncn3c4ccc(O)cc4c(=O)c1c23,GI50,[1],0.802 µM
same,TGI,[1],14.5 µM
same,GI50,[2],0.6 µM
same,TGI,[2],17.8 µM
same,GI50,[3],0.336 µM
same,TGI,[3],6.94 µM
same,GI50,[4],0.389 µM
same,TGI,[4],3.78 µM
same,GI50,[5],0.205 µM
same,TGI,[5],2.48 µM and 2.36 µM
same,TGI,[6],19.4 µM
same,TGI,[7],16.1 µM
same,TGI,[8],23.8 µM
same,TGI,[9],14.8 µM
same,GI50,[10],5.51 µM
same,TGI,[10],19 µM
same,GI50,[11],3.59 µM
same,TGI,[11],17.8 µM
same,GI50,[12],0.359 µM
same,TGI,[12],9.75 µM and 14.1 µM
same,GI50,[13],2.03 µM
same,TGI,[13],15.7 µM
same,GI50,[14],0.17 µM
same,TGI,[14],4.49 µM and 1.62 µM
same,TGI,[15],34.6 µM
same,GI50,[16],1.25 µM
same,TGI,[16],19.2 µM
same,GI50,[17],1.28 µM
same,TGI,[17],7.57 µM and 12.5 µM
same,TGI,[18],7.28 µM
same,GI50,[19],2.32 µM
same,TGI,[19],7.78 µM
same,GI50,[20],0.265 µM
same,TGI,[20],8.58 µM and 18.6 µM
same,GI50,[21],1.3 µM
same,TGI,[21],20.5 µM
same,GI50,[22],2.6 µM
same,TGI,[22],19.5 µM
same,TGI,[23],18.2 µM
same,GI50,[24],0.95 µM
same,TGI,[24],2.37 µM and 2.56 µM
same,TGI,[25],18.5 µM
same,TGI,[26],16 µM
same,TGI,[27],21.3 µM
same,GI50,[28],4.17 µM
same,TGI,[28],19.1 µM
same,TGI,[29],0.255 µM and 0.52 µM
same,TGI,[30],3.5 µM
same,GI50,[31],0.784 µM
same,TGI,[31],14.5 µM
same,GI50,[32],0.0627 µM
same,TGI,[32],5.78 µM
same,GI50,[33],0.218 µM
same,TGI,[33],4.44 µM and 4.68 µM
same,TGI,[34],22.2 µM
same,TGI,[35],11.9 µM
same,GI50,[36],4.39 µM
same,TGI,[36],10.7 µM
same,GI50,[37],0.669 µM
same,TGI,[37],13.4 µM
same,GI50,[38],1.45 µM
same,TGI,[38],21.8 µM
same,GI50,[39],0.902 µM
same,TGI,[39],6.35 µM and 2.69 µM
same,GI50,[40],2.66 µM
same,TGI,[40],17.5 µM
same,GI50,[41],1.83 µM
same,TGI,[41],15.9 µM
same,GI50,[42],4.51 µM
same,TGI,[42],17.2 µM
same,TGI,[43],19 µM
same,TGI,[44],25.2 µM
same,TGI,[45],18.3 µM
same,GI50,[46],0.369 µM
same,TGI,[46],17.8 µM
same,GI50,[47],2.78 µM
same,TGI,[47],14.7 µM
same,GI50,[48],0.493 µM
same,TGI,[48],20.2 µM
same,GI50,[49],2.3 µM
same,TGI,[49],8.49 µM and 8.39 µM
same,TGI,[50],28.8 µM
same,GI50,[51],0.124 µM
same,TGI,[51],2.86 µM and 1.53 µM
same,GI50,[52],0.832 µM
same,TGI,[52],15.8 µM
same,GI50,[53],2.23 µM
same,TGI,[53],21.2 µM
same,GI50,[54],2.05 µM
same,TGI,[54],17.7 µM
same,TGI,[55],23.8 µM
same,GI50,[56],0.295 µM
same,TGI,[56],13.4 µM
same,TGI,[57],14.2 µM
